Measurements reported in US20250100996A1, “HETEROCYCLOALKYL AND HETEROARYL COMPOUNDS AND PHARMACEUTICAL COMPOSITIONS THAT MODULATE IKZF2” (Plexium, Inc., priority 2021, published 2025).

How the values were obtained:
Type in all cases: cell-based
IKZF3 (Aiolos) = target: T1, IKZF3 (Aiolos) (Homo sapiens, UniProt Q9UKT9); assay: IKZF3 reporter degradation assay (HEK 293T IKZF3-mNeonGreen reporter cell line); details: HEK 293T IKZF3-mNeonGreen reporter, 24 hours incubation; for inhibition at 1 µM: HEK-293T, 24 h
T1 construct: Leu-Asp junction (codons ctcgac before the linker); mScarlet (behind P2A) (C, cleaved yes); expressed in transfected cells
T1 sequence (Q96SW2 whole entry partner): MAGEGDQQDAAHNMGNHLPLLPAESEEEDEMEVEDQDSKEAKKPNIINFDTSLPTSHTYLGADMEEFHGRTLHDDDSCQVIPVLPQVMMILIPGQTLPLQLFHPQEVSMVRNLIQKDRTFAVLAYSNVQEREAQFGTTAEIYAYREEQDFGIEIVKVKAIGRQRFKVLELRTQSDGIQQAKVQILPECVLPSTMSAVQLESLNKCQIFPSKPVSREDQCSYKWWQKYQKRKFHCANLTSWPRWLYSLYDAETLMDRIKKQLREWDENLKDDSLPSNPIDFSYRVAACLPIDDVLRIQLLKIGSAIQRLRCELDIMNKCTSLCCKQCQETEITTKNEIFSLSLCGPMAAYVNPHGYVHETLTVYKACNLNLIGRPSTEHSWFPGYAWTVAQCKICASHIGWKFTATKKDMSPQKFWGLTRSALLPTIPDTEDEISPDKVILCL
T1 sequence (Q16531 whole entry partner): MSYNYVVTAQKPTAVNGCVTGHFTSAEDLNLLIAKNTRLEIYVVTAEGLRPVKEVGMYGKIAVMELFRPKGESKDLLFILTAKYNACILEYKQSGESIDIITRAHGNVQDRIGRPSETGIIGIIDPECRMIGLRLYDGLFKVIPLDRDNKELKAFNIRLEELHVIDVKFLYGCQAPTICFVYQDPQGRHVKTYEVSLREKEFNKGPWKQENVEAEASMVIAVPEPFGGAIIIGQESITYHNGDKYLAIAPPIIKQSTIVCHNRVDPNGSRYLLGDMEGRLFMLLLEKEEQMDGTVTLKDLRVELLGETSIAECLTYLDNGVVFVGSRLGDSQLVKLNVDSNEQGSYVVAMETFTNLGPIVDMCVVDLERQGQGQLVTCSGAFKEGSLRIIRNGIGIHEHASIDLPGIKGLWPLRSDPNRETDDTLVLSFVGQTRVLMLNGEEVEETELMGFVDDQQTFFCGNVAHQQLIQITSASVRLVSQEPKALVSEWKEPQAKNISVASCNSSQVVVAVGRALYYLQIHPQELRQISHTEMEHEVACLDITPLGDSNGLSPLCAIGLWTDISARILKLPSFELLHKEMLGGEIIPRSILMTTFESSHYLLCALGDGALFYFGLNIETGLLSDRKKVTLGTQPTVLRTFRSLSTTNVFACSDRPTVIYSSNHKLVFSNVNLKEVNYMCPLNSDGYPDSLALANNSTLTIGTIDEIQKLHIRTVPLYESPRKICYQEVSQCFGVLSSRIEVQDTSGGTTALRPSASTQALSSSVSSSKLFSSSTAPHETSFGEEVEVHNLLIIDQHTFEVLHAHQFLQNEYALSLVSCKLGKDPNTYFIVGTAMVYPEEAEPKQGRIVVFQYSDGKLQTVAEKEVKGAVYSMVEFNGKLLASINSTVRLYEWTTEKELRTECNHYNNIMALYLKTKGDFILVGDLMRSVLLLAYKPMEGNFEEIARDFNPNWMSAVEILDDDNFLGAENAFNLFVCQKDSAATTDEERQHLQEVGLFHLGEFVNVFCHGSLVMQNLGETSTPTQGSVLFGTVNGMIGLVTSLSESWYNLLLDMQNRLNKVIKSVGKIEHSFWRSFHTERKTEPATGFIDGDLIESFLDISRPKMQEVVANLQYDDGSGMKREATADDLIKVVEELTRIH
T1 sequence (Q9UKT9 whole entry): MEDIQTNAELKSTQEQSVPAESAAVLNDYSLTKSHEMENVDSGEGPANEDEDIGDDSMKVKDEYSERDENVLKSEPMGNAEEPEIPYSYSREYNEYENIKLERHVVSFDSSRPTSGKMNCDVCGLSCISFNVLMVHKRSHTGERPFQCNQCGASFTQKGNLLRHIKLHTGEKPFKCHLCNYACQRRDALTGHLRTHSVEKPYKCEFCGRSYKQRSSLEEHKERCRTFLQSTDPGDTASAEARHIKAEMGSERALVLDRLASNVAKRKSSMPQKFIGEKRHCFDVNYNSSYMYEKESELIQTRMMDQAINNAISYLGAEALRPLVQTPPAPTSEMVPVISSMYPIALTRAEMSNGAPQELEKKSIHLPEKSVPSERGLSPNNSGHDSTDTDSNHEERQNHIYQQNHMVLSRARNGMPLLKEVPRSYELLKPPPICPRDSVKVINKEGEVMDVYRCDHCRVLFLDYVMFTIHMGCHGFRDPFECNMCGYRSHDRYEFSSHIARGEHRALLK
How it was run: (§1)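 Stable clonal HEK 293T lines express each IKZF-mNeonGreen-P2A-mScarlet fusion. Cells were seeded, attached overnight, then given compound (≤0.5% DMSO, quadruplicate) for 24 h at 37° C. Imaged for percent mNeonGreen-positive cells, segmented on mScarlet. DC50 from four-parameter logistic fit.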

IKZF2 (Helios) = target: T2, IKZF2 (Helios) (Homo sapiens, UniProt Q9UKS7); assay: IKZF2 reporter degradation assay (HEK 293T IKZF2-mNeonGreen reporter cell line); details: HEK 293T IKZF2-mNeonGreen reporter, 24 hours incubation
T2 construct: Leu-Asp junction (codons ctcgac before the linker); mScarlet (behind P2A) (C, cleaved yes); expressed in transfected cells
T2 sequence (Q9UKS7 whole entry): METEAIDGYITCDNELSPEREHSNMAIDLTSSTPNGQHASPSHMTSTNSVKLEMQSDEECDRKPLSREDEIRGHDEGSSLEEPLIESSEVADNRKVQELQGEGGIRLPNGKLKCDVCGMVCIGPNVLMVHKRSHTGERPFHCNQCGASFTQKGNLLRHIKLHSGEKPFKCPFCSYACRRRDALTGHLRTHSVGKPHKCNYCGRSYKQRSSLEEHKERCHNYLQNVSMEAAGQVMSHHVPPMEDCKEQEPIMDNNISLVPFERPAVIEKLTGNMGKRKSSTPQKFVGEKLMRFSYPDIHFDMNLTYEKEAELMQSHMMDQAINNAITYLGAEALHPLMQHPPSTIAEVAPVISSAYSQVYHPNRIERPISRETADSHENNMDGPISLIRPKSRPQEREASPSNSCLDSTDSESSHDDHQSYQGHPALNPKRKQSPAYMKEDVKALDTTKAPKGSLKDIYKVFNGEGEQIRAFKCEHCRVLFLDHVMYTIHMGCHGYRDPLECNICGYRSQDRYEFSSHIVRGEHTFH
T2 sequence (Q96SW2 whole entry, further chain): as the sequence (Q96SW2 whole entry partner) above
T2 sequence (Q16531 whole entry partner): as the sequence (Q16531 whole entry partner) above
How it was run: as §1

GSPT1 = target: T3, GSPT1 (Homo sapiens, UniProt P15170); assay: GSPT1 reporter degradation assay (HEK293 hGSPT1 HiBiT-tagged cells); details: 24 hour incubation
T3 construct: HiBiT-tagged cells were generated using CRISPR-Cas12a technology; endogenous in cells; host or cells: HEK293 (endogenous GSPT1 locus edited with HiBiT knock-in)
T3 sequence (Q96SW2 whole entry partner): as the sequence (Q96SW2 whole entry partner) above
T3 sequence (Q16531 whole entry partner): as the sequence (Q16531 whole entry partner) above
T3 sequence (P15170 whole entry): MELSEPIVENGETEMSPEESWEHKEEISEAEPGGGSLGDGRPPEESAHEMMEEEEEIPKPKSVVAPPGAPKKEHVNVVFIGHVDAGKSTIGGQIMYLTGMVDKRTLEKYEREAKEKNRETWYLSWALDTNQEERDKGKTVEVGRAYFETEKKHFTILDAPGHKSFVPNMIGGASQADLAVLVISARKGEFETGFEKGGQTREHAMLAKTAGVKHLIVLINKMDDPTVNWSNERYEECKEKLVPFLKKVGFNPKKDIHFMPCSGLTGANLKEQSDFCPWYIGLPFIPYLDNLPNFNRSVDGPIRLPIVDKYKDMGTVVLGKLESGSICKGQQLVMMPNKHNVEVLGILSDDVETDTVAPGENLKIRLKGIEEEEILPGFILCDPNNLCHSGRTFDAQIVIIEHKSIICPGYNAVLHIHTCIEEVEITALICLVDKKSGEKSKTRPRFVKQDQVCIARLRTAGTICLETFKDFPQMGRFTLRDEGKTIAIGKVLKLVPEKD
Description: HEK293_hGSPTl_HiBiT-tagged cells were generated using CRISPR-Cas12a technology. Briefly, ˜400,000 HEK293 cells were transiently co-transfected with precomplexed ribonuclear proteins (RNPs) consisting of 80 pmol of crRNA (IDT), 62 pmol of Cas12a protein (IDT), 3 μg of ssODN donor (IDT; Alt® modifications), 78 pmol of electroporation enhancer (IDT), and 200 ng of pMaxGFP (Lonza). The transfection was performed via nucleofection (Lonza, 4D-Nucleofector X-unit) using solution P3 and program CM-130 in a ([…]) cuvette. Five days post-nucleofection, cells were single-cell-sorted for GFP+(transfected) cells by FACs in 96-well plates and clonally selected. Clones were screened and verified for the desired modification via targeted deep sequencing using gene-specific primers with partial Illumina adapter overhangs as previously described. In brief, clonal cell pellets were harvested, lysed, and used to generate gene-specific amplicons with partial Illumina adapters in PCR #1. Amplicons were indexed in PCR #2 and pooled with other targeted amplicons for other loci to create sequence diversity. Additionally, 10% PhiX sequencing control V3 (Illumina) was added to the pooled amplicon library prior to running the sample on a Miseq Sequencer System (Illumina) to generate paired 2×250 bp reads. Samples were demultiplexed using the index sequences, fastq files were generated, and NGS analysis was performed using CRIS.py. Final clones were authenticated using the PowerPlex fusion system (Promega) and tested negative for mycoplasma by the MycoAlertTMPlus mycoplasma detection kit (Lonza).
Editing construct sequences and screening primers are outlined below (sequence from 5′ to 3′). hGSPT1Cas12acrRNA, CAGE635.GSPT1.g1: […]; CAGE635.g1.anti.ssODN: ttcctcacagtattgtgcagggtcatcaagaaaatgctta[…] CAGCCGCTCACgtcCttctctggaaccagtttcagaacttttccaattgcaatggtcttacctagaaatgaaattttaa (HiBiT tag and silent blocking modifications to prevent Cas12a recutting after integration are in upper case); CAGE635.hGSPT1.DS.F: […]; CAGE635.hGSPT1.DS.R: GTGAA GTAGGCTTCTGCAGTC.
The GSPT1 degradation assay was carried out by harvesting the HEK 293T reporter cell lines and resuspending the cells in media formulated for reduced background fluorescence (FluoroBrite; Thermo Fisher). The respective cell lines were seeded at a density of 8,000 cells/well into white-opaque 384-well optical grade assay tissue culture plates (Greiner 781080-20). The cells were incubated overnight at 37° C. to allow for attachment to the assay plate. Dilutions of the compounds were prepared in DMSO from 10 mM compound stocks. Test compounds were added in a 10-point dilution series (typically 10 μM to 100 pM) using a TECAN D300e Digital Dispenser with an upper limit of 0.5% final DMSO. Plates were centrifuged at 320×g for 2 minutes at room temperature, and subsequently incubated at 37° C.
After 24 hour incubation with the compounds, the plates were allowed to cool to room temperature for 10 minutes. 30 μL of HiBiT lytic buffer+1:50 HiBiT substrate Solution were added to each well. Plates were centrifuged at 320×g for 2 minutes at room temperature and then incubated with shaking at room temperature for 10 minutes covered with foil. Plates were read on a CLARIOstar microplate reader (BMG LabTech), measuring at 450 nm (donor emission) and 610 nm or 630 nm (acceptor emission). The DC50 values were determined by regression to best fit four-parameter logistic curves using GraphPad Prism.

IKZF1 (Ikaros) = target: T4, IKZF1 (Ikaros) (Homo sapiens, UniProt Q13422); assay: IKZF1 reporter degradation assay (HEK 293T IKZF1-mNeonGreen reporter cell line); details: HEK 293T IKZF1-mNeonGreen reporter, 24 hours incubation
T4 construct: mScarlet (behind P2A) (C, cleaved yes); expressed in transfected cells
T4 sequence (Q96SW2 whole entry partner): as the sequence (Q96SW2 whole entry partner) above
T4 sequence (Q16531 whole entry partner): as the sequence (Q16531 whole entry partner) above
T4 sequence (Q13422 whole entry): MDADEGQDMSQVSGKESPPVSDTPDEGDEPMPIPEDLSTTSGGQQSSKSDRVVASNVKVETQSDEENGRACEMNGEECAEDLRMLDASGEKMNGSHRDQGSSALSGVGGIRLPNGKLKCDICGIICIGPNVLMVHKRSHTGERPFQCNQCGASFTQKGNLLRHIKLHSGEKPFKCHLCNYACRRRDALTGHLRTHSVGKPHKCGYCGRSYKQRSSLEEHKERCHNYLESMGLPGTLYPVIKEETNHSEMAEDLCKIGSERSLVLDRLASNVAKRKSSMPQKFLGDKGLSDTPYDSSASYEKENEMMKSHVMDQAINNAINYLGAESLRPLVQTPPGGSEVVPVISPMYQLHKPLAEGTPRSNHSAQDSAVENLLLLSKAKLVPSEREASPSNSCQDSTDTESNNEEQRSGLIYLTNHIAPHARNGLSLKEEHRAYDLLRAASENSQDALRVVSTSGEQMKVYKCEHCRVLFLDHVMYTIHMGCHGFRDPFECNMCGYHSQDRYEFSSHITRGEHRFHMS
How it was run: as §1

SMILES | DC50 (IKZF3 (Aiolos)) | inhibition at 1 µM (IKZF3 (Aiolos)) | DC50 (IKZF2 (Helios)) | DC50 (GSPT1) | DC50 (IKZF1 (Ikaros))
N#CC1(C(=O)N2CCC(C3CN([C@H]4CCCC[C@@H]4Oc4ccc5c(c4)CN(C4CCC(=O)NC4=O)C5=O)C3)CC2)CC1 (stereo partly drawn) [Compound 27-A, 1-(4-(1-((1S,2S)-2-((2-(2,6-dioxopiperidin-3-yl)-1-oxoisoindolin-5-yl)oxy)cyclohexyl)azetidin-3-yl)piperidine-1-carbonyl)cyclopropane-1-carbonitrile] | 0.11 µM | 44% | 0.008 µM | > 30 µM | ≥ 30 µM
CC1(C(=O)N2CCC(C3CN([C@H]4CCCC[C@@H]4Oc4ccc5c(c4)CN(C4CCC(=O)NC4=O)C5=O)C3)CC2)CC1 (stereo partly drawn) [Compound 31-A, 3-(5-(((1S,2S)-2-(3-(1-(1-methylcyclopropane-1-carbonyl)piperidin-4-yl)azetidin-1-yl)cyclohexyl)oxy)-1-oxoisoindolin-2-yl)piperidine-2,6-dione] | 0.061 µM | 26.2% | 0.0001 µM | > 30 µM | > 30 µM
O=C1CCC(N2Cc3cc(O[C@H]4CCCC[C@@H]4N4CC(c5ccc6cccnc6c5)C4)ccc3C2=O)C(=O)N1 (stereo partly drawn) [Compound 87-B, 3-(1-oxo-5-(((1S,2S)-2-(3-(quinolin-7-yl)azetidin-1-yl)cyclohexyl)oxy)isoindolin-2-yl)piperidine-2,6-dione] | > 30 µM |  | 0.004 µM | > 30 µM | > 30 µM
O=C1CCC(N2Cc3cc(O[C@H]4CCCC[C@@H]4N4CC(C5CCN(C(=O)CC6CC6)CC5)C4)ccc3C2=O)C(=O)N1 (stereo partly drawn) [Compound 34-A, 3-(5-(((1S,2S)-2-(3-(1-(2-cyclopropylacetyl)piperidin-4-yl)azetidin-1-yl)cyclohexyl)oxy)-1-oxoisoindolin-2-yl)piperidine-2,6-dione] | 0.544 µM | 24.9% | 0.002 µM | > 30 µM | > 30 µM
O=C1CCC(N2Cc3cc(O[C@H]4CCCC[C@@H]4N4CC(C5CCN(S(=O)(=O)C6CCC6)CC5)C4)ccc3C2=O)C(=O)N1 (stereo partly drawn) [Compound 57-A, 3-(5-(((1S,2S)-2-(3-(1-(cyclobutylsulfonyl)piperidin-4-yl)azetidin-1-yl)cyclohexyl)oxy)-1-oxoisoindolin-2-yl)piperidine-2,6-dione] | > 30 µM |  | 0.002 µM | > 30 µM | > 30 µM
O=C1CCC(N2Cc3cc(O[C@H]4CCCC[C@@H]4N4CC(C5CCOCC5F)C4)ccc3C2=O)C(=O)N1 (stereo partly drawn) [Compound 55-A, 3-(5-(((1S,2S)-2-(3-(3-fluorotetrahydro-2H-pyran-4-yl)azetidin-1-yl)cyclohexyl)oxy)-1-oxoisoindolin-2-yl)piperidine-2,6-dione] | > 30 µM |  | 0.005 µM | > 30 µM | > 30 µM
CC1(C(=O)N2CCC(C3CN([C@H]4CCCC[C@@H]4Oc4ccc5c(c4)CN(C4CCC(=O)NC4=O)C5=O)C3)CC2)COC1 (stereo partly drawn) [Compound 29-A, 3-(5-(((1S,2S)-2-(3-(1-(3-methyloxetane-3-carbonyl)piperidin-4-yl)azetidin-1-yl)cyclohexyl)oxy)-1-oxoisoindolin-2-yl)piperidine-2,6-dione] | > 30 µM |  | 0.011 µM | > 30 µM | > 30 µM
O=C1CCC(N2Cc3cc(O[C@H]4CCCC[C@@H]4N4CC(C5CCOC5)C4)ccc3C2=O)C(=O)N1 (stereo partly drawn) [Compound 14-A, 3-(1-oxo-5-(((1S,2S)-2-(3-(tetrahydrofuran-3-yl)azetidin-1-yl)cyclohexyl)oxy)isoindolin-2-yl)piperidine-2,6-dione] | > 30 µM |  | 0.028 µM | > 30 µM | > 30 µM
CC1CC1C(=O)N1CCC(C2CN([C@H]3CCCC[C@@H]3Oc3ccc4c(c3)CN(C3CCC(=O)NC3=O)C4=O)C2)CC1 (stereo partly drawn) [Compound 35-A, 3-(5-(((1S,2S)-2-(3-(1-(2-methylcyclopropane-1-carbonyl)piperidin-4-yl)azetidin-1-yl)cyclohexyl)oxy)-1-oxoisoindolin-2-yl)piperidine-2,6-dione] | 8.07 µM | 23.5% | 0.001 µM | > 30 µM | > 30 µM
O=C1CCC(N2Cc3cc(O[C@H]4CCCC[C@@H]4N4CC(C5CCN(C(=O)C6CC(F)(F)C6)CC5)C4)ccc3C2=O)C(=O)N1 (stereo partly drawn) [Compound 32-A, 3-(5-(((1S,2S)-2-(3-(1-(3,3-difluorocyclobutane-1-carbonyl)piperidin-4-yl)azetidin-1-yl)cyclohexyl)oxy)-1-oxoisoindolin-2-yl)piperidine-2,6-dione] | 0.071 µM | 24.1% | 0.001 µM | > 30 µM | > 30 µM

Compounds with a lower DC50 (IKZF3 (Aiolos)), results first:

DC50 (IKZF3 (Aiolos)) | inhibition at 1 µM (IKZF3 (Aiolos)) | DC50 (IKZF2 (Helios)) | DC50 (GSPT1) | DC50 (IKZF1 (Ikaros)) | SMILES
0.021 µM | 31% | 0.001 µM | > 30 µM | > 30 µM | O=C1CCC(N2Cc3cc(O[C@H]4CCCC[C@@H]4N4CC(C5CCN(C(=O)C6(F)CC6)CC5)C4)ccc3C2=O)C(=O)N1 (stereo partly drawn) [Compound 42-A, 3-(5-(((1S,2S)-2-(3-(1-(1-fluorocyclopropane-1-carbonyl)piperidin-4-yl)azetidin-1-yl)cyclohexyl)oxy)-1-oxoisoindolin-2-yl)piperidine-2,6-dione]
0.013 µM | 67.5% | 0.002 µM | > 30 µM | > 30 µM | CC12CC(C(=O)N3CCC(C4CN([C@H]5CCCC[C@@H]5Oc5ccc6c(c5)CN(C5CCC(=O)NC5=O)C6=O)C4)CC3)(C1)C2 (stereo partly drawn) [Compound 28-A, 3-(5-(((1S,2S)-2-(3-(1-(3-methylbicyclo[1.1.1]pentane-1-carbonyl)piperidin-4-yl)azetidin-1-yl)cyclohexyl)oxy)-1-oxoisoindolin-2-yl)piperidine-2,6-dione]
0.006 µM | 60.8% |  | > 30 µM | > 30 µM | CC1(C(=O)N2CCC(C3CN([C@H]4CCCC[C@@H]4Oc4ccc5c(c4)CN(C4CCC(=O)NC4=O)C5=O)C3)CC2)CCCC1 (stereo partly drawn) [Compound 33-A, 3-(5-(((1S,2S)-2-(3-(1-(1-methylcyclopentane-1-carbonyl)piperidin-4-yl)azetidin-1-yl)cyclohexyl)oxy)-1-oxoisoindolin-2-yl)piperidine-2,6-dione]
0.014 µM | 63.4% | 0.0005 µM | > 30 µM | > 30 µM | N#CC1(C(=O)N2CCC(C3CN([C@H]4CCCC[C@@H]4Oc4ccc5c(c4)CN(C4CCC(=O)NC4=O)C5=O)C3)CC2)CCC1 (stereo partly drawn) [Compound 30-A, 1-(4-(1-((1S,2S)-2-((2-(2,6-dioxopiperidin-3-yl)-1-oxoisoindolin-5-yl)oxy)cyclohexyl)azetidin-3-yl)piperidine-1-carbonyl)cyclobutane-1-carbonitrile]
